Test results as given in patent US20250250287A1, “HETEROCYCLIC COMPOUNDS, COMPOSITIONS THEREOF, AND METHODS OF TREATMENT THEREWITH” (BeiGene Switzerland GmbH, priority 2022, published 2025).

System: pERK1/2(THR202/TYR204) level in SW620 cell line (KRAS G12V)
Assay: KRAS G12V pERK assay (HTRF) in SW620 cell line
Type: cell-based
Conditions: Homo sapiens, SW-620, 2 h, SW620 cells, 2 hrs compound treatment
Description: SW620 cell line was used in this study. Cells were maintained in RPMI 1640 supplemented with 10% fetal bovine serum (Thermo Fisher), 50 units/mL penicillin and streptomycin (Thermo Fisher) and kept at 37° C. in a humidified atmosphere of 5% CO2 in air. Cells were reinstated from frozen stocks that were laid down within 30 passages from the original cells purchased. 40000 cells per well were seeded into a 96-well plate and incubated overnight. Cells were treated with a 10-point dilution series. The final compound concentration is from 0 to 10 μM. After 2 hrs compound treatment, cells were lysed, and the pERK1/2(THR202/TYR204) level in the cell lysates was detected by HTRF kit (Cisbio). In brief, a total of 16 μL of cell lysate from each well of a 96-well plate was transferred to a 384-well white assay plate. Lysate from each well was incubated with 2 μL of Eu3+-cryptate (donor) labeled anti-phospho-ERK1/2 and 2 μL of D2 (acceptor) labeled anti-phospho-ERK1/2 antibodies (Cisbio) overnight in dark at room temperature. When donor and acceptor are in close proximity, excitation of the donor with laser triggers a Fluorescence Resonance Energy Transfer (FRET) towards the acceptor, which in turn fluoresces at 655 nm wavelength. FRET signals were measured using a PHERAstar FSX reader (BMG Labtech). IC50 determination was performed by fitting the curve of percent inhibition versus the log of the inhibitor concentration using Dotmatics.

| IC50 [nM] | SMILES |
| --- | --- |
| 187 | Nc1cc(Cl)c(C(F)(F)F)c(-c2nc3c4c(nc(OC[C@@]56CCCN5C[C@H](F)C6)nc4c2F)N2CCCC[C@H]2CO3)c1 [Example 15, 3-chloro-5-((S)-1-fluoro-11-(((2R,7aS)-2-fluorotetrahydro-1H-pyrrolizin-7a(5H)-yl)methoxy)-5,5a,6,7,8,9-hexahydro-4-oxa-3,9a,10,12-tetraazabenzo[4,5]cyclohepta[1,2,3-de]naphthalen-2-yl)-4-(trifluoromethyl)aniline] |
| 9.3 | C#Cc1c(F)ccc2cc(O)cc(-c3nc4c5c(nc(OC[C@@]67CCCN6C[C@H](F)C7)nc5c3F)N3CCCCCC3CO4)c12 (stereo partly drawn) [Example 26, 5-ethynyl-6-fluoro-4-(1-fluoro-12-(((2R,7aS)-2-fluorotetrahydro-1H-pyrrolizin-7a(5H)-yl)methoxy)-5a,6,7,8,9,10-hexahydro-5H-4-oxa-3,10a,11,13-tetraazanaphtho[1,8-ab]heptalen-2-yl)naphthalen-2-ol] |
| 658 | C#Cc1c(F)ccc2cc(O)cc(-c3cc4c5c(nc(OC[C@@]67CCCN6C[C@H](F)C7)nc5c3F)N3CC(F)(F)C[C@H]3CO4)c12 [Example 4, 5-ethynyl-6-fluoro-4-((S)-2,2,8-trifluoro-6-(((2R,7aS)-2-fluorotetrahydro-1H-pyrrolizin-7a(5H)-yl)methoxy)-2,3,12,12a-tetrahydro-1H-pyrrolo[2′,1′:3,4][1,4]oxazepino[5,6,7-de]quinazolin-9-yl)naphthalen-2-ol] |
| 10 | C#Cc1c(F)ccc2cc(O)cc(-c3nc4c5c(nc(OC[C@@]67CCCN6C[C@H](F)C7)nc5c3F)N3CCCC[C@H]3[C@H](C)O4)c12 [Example 34, 5-ethynyl-6-fluoro-4-((5S,5aS)-1-fluoro-11-(((2R,7aS)-2-fluorotetrahydro-1H-pyrrolizin-7a(5H)-yl)methoxy)-5-methyl-5,5a,6,7,8,9-hexahydro-4-oxa-3,9a,10,12-tetraazabenzo[4,5]cyclohepta[1,2,3-de]naphthalen-2-yl)naphthalen-2-ol] |
| 31 | N#Cc1c(N)sc2c(F)ccc(-c3c(Cl)c4c5c(nc(OC[C@@]67CCCN6C[C@H](F)C7)nc5c3F)N3CCC[C@H]3CO4)c12 [Example 27, 2-amino-4-((S)-10-chloro-8-fluoro-6-(((2R,7aS)-2-fluorotetrahydro-1H-pyrrolizin-7a(5H)-yl)methoxy)-2,3,12,12a-tetrahydro-1H-pyrrolo[2′,1′:3,4][1,4]oxazepino[5,6,7-de]quinazolin-9-yl)-7-fluorobenzo[b]thiophene-3-carbonitrile] |
| 53 | Nc1cc(Cl)c(C(F)(F)F)c(-c2nc3c4c(nc(OC[C@@]56CCCN5C[C@H](F)C6)nc4c2F)N2CCCCCC2CO3)c1 (stereo partly drawn) [Example 25, 3-chloro-5-(1-fluoro-12-(((2R,7aS)-2-fluorotetrahydro-1H-pyrrolizin-7a(5H)-yl)methoxy)-5a,6,7,8,9,10-hexahydro-5H-4-oxa-3,10a,11,13-tetraazanaphtho[1,8-ab]heptalen-2-yl)-4-(trifluoromethyl)aniline] |
| 648 | Nc1cc(Cl)c(C(F)(F)F)c(-c2nc3c4c(nc(OC[C@@]56CCCN5C[C@H](F)C6)nc4c2F)N2CCC[C@@H]2CO3)c1 [Example 13, 3-chloro-5-((R)-7-fluoro-5-(((2R,7aS)-2-fluorotetrahydro-1H-pyrrolizin-7a(5H)-yl)methoxy)-2,3,11,11a-tetrahydro-1H-10-oxa-3a,4,6,9-tetraazanaphtho[1,8-ef]azulen-8-yl)-4-(trifluoromethyl)aniline] |
| 56 | N#Cc1c(N)sc2c(F)ccc(-c3c(Cl)c4c5c(nc(OC[C@@]67CCCN6C[C@H](F)C7)nc5c3F)N3CC[C@@H](O)C[C@H]3CO4)c12 [Example 31, 2-Amino-4-((8aS,10R)-6-chloro-4-fluoro-2-(((2R,7aS)-2-fluorotetrahydro-1H-pyrrolizin-7a(5H)-yl)methoxy)-10-hydroxy-8,8a,9,10,11,12-hexahydropyrido[2′,1′:3,4][1,4]oxazepino[5,6,7-de]quinazolin-5-yl)-7-fluorobenzo[b]thiophene-3-carbonitrile] |
| 56 | Cc1cc(N)cc(-c2nc3c4c(nc(OC[C@@]56CCCN5C[C@H](F)C6)nc4c2F)N2CCC[C@@H]2CCO3)c1C(F)(F)F [Example 12, 3-((R)-7-fluoro-5-(((2R,7aS)-2-fluorotetrahydro-1H-pyrrolizin-7a(5H)-yl)methoxy)-1,2,3,11,12,12a-hexahydro-10-oxa-3a,4,6,9-tetraazacyclopenta[4,5]cycloocta[1,2,3-de]naphthalen-8-yl)-5-methyl-4-(trifluoromethyl)aniline] |
| 66 | Nc1cc(Cl)c(C(F)(F)F)c(-c2nc3c4c(nc(OC[C@@]56CCCN5C[C@H](F)C6)nc4c2F)N2CCC[C@@H]2CCO3)c1 [Example 11, 3-chloro-5-((R)-7-fluoro-5-(((2R,7aS)-2-fluorotetrahydro-1H-pyrrolizin-7a(5H)-yl)methoxy)-1,2,3,11,12,12a-hexahydro-10-oxa-3a,4,6,9-tetraazacyclopenta[4,5]cycloocta[1,2,3-de]naphthalen-8-yl)-4-(trifluoromethyl)aniline] |
| 15 | C#Cc1c(F)ccc2cc(O)cc(-c3nc4c5c(nc(OC[C@@]67CCCN6C[C@H](F)C7)nc5c3F)N3C[C@@H](O)CC[C@H]3CO4)c12 [Example 35, (5aS,8S)-2-(8-ethynyl-7-fluoro-3-hydroxynaphthalen-1-yl)-1-fluoro-11-(((2R,7aS)-2-fluorotetrahydro-1H-pyrrolizin-7a(5H)-yl)methoxy)-5,5a,6,7,8,9-hexahydro-4-oxa-3,9a,10,12-tetraazabenzo[4,5]cyclohepta[1,2,3-de]naphthalen-8-ol] |
| 121 | CC1Oc2nc(-c3cc(N)cc(Cl)c3C(F)(F)F)c(F)c3nc(OC[C@@]45CCCN4C[C@H](F)C5)nc(c23)N2CCC[C@@H]12 (stereo partly drawn) [Example 24, 3-chloro-5-((11aS)-7-fluoro-5-(((2R,7aS)-2-fluorotetrahydro-1H-pyrrolizin-7a(5H)-yl)methoxy)-11-methyl-2,3,11,11a-tetrahydro-1H-10-oxa-3a,4,6,9-tetraazanaphtho[1,8-ef]azulen-8-yl)-4-(trifluoromethyl)aniline] |
| 668 | N#Cc1c(N)sc2c(F)ccc(-c3cc4c5c(nc(OC[C@@]67CCCN6C[C@H](F)C7)nc5c3F)N3CCC[C@@H]3CCO4)c12 [Example 5, 2-amino-7-fluoro-4-((R)-8-fluoro-6-(((2R,7aS)-2-fluorotetrahydro-1H-pyrrolizin-7a(5H)-yl)methoxy)-1,2,3,12,13,13a-hexahydropyrrolo[1′,2′:5,6][1,5]oxazocino[4,3,2-de]quinazolin-9-yl)benzo[b]thiophene-3-carbonitrile] |
| 890 | Nc1cc(Cl)c(C(F)(F)F)c(-c2nc3c4c(nc(OC[C@@]56CCCN5C[C@H](F)C6)nc4c2F)N2CCC[C@H]2CO3)c1 [Example 9, 3-chloro-5-((S)-7-fluoro-5-(((2R,7aS)-2-fluorotetrahydro-1H-pyrrolizin-7a(5H)-yl)methoxy)-2,3,11,11a-tetrahydro-1H-10-oxa-3a,4,6,9-tetraazanaphtho[1,8-e]azulen-8-yl)-4-(trifluoromethyl)aniline] |
| 49 | N#Cc1c(N)sc2c(F)ccc(-c3c(Cl)c4c5c(nc(OC[C@@]67CCCN6C[C@H](F)C7)nc5c3F)N3CCC[C@@H]3CCO4)c12 [Example 7, 2-amino-4-((13aR)-10-chloro-8-fluoro-6-(((2R,7aS)-2-fluorotetrahydro-1H-pyrrolizin-7a (5H)-yl)methoxy)-1,2,3,12,13,13a-hexahydropyrrolo[1′,2′:5,6][1,5]oxazocino[4,3,2-de]quinazolin-9-yl)-7-fluorobenzo[b]thiophene-3-carbonitrile] |
| 290 | N#Cc1c(N)sc2c(F)ccc(-c3cc4c5c(nc(OC[C@@]67CCCN6C[C@H](F)C7)nc5c3F)N3CCC[C@H]3CO4)c12 [Example 1, 2-amino-7-fluoro-4-((S)-4-fluoro-2-(((2R,7aS)-2-fluorotetrahydro-1H-pyrrolizin-7a(5H)-yl)methoxy)-8a,9,10,11-tetrahydro-8H-pyrrolo[2′,1′:3,4][1,4]oxazepino[5,6,7-de]quinazolin-5-yl)benzo[b]thiophene-3-carbonitrile] |
| 43 | C#Cc1c(F)ccc2cc(O)cc(-c3nc4c5c(nc(OC[C@@]67CCCN6C[C@H](F)C7)nc5c3F)N3CCC[C@H]3CO4)c12 [Example 10, 5-ethynyl-6-fluoro-4-((S)-7-fluoro-5-(((2R,7aS)-2-fluorotetrahydro-1H-pyrrolizin-7a(5H)-yl)methoxy)-2,3,11,11a-tetrahydro-1H-10-oxa-3a,4,6,9-tetraazanaphtho[1,8-ef]azulen-8-yl)naphthalen-2-ol] |

| SMILES | IC50 [nM] |
| --- | --- |
| C#Cc1c(F)ccc2cc(O)cc(-c3nc4c5c(nc(OC[C@@]67CCCN6C[C@H](F)C7)nc5c3F)N3[C@H](CO4)C[C@@H]4C[C@@H]43)c12 [Example 32, 5-ethynyl-6-fluoro-4-((5aS,6aS,7aS)-1-fluoro-9-(((2R,7aS)-2-fluorotetrahydro-1H-pyrrolizin-7a(5H)-yl)methoxy)-5,5a,6,6a,7,7a-hexahydro-4-oxa-3,7b,8,10-tetraazacyclopropa[a]naphtho[1,8-gh]azulen-2-yl)naphthalen-2-ol] | 26 |

Same assay, conditions: SW620 cells, 2 hrs compound treatment

| IC50 [nM] | SMILES |
| --- | --- |
| 40 | C#Cc1c(F)ccc2cc(O)cc(-c3nc4c5c(nc(OCC67CCCN6CC(F)C7)nc5c3F)N3CCC3CO4)c12 (single isomer, unassigned) [Example 20] |
